One data set has as its system hTfR-KI mice. Kind of data set: Mouse brain localization confirmation test with FITC conjugate (immunohistochemical staining, single and multiple dose). It counts as in vivo. As to conditions: multiple dose test, 3.7 mg/kg every 10 minutes, 6 times. On the procedure: In the same manner as in Example 5, the conjugate of the hTfR-binding special cyclic peptide No. 894 and the fluorescent substance FITC was administered to the hTfR-KI mice. The dose was adjusted to 3.7 mg/kg.
One hour after administration, the mice were anesthetized with isoflurane and subjected to a blood removal treatment by running normal saline from the left ventricle for 4 to 5 minutes. After that, the brain was collected for measuring the fluorescence intensity and stored in normal saline to prevent drying. This brain tissue was subjected to immunohistochemical staining using an anti-FITC antibody (MBL Life Science). The immunohistochemical staining in the brain tissue using the anti-FITC antibody was performed with a publicly known method and the staining was observed using a fluorescence microscope. Note that in the figure, red arrows indicate the cerebral capillaries and arrowheads indicate the Purkinje cells.
The localization of the above-mentioned conjugate in the brain tissue was confirmed by the immunohistochemical staining. Note that, in the figure, red arrows indicate the cerebral capillaries, arrowheads indicate the Purkinje cells, and yellow arrows indicate dendrites.

The subject of data set [1] is Human breast cancer cells BT-549. Kind of data set: Migration of 5-FAM peptide conjugates into human breast cancer cells BT-549 (fluorescence microscopy). It counts as cell-based. The following applies: BT-549 cells, sample diluted to 100 nmol/L, 37° C., 3 hours. On the procedure: Culturing was performed under conditions of 37° C. and 5% CO2.
Collagen Type I (Corning) was diluted to 50 µg/mL with 20 mmol/L acetic acid. A sterilized cover glass was placed in each well of the 24-well plate. After the diluted Collagen Type I solution was added to the plate, the plate was incubated at 37° C. for 1 hour. The Collagen Type I solution was removed from the plate and the plate was washed 3 times with PBS. The human breast cancer cells BT-549 were inoculated in an amount of 1 × 10^5 cells per 1 well and cultured overnight under conditions of 37° C. and 5% CO2.
The sample was diluted with the dilution medium to 100 nmol/L.
The sample solution was removed from the 24-well plate, and the BT-549 cells were washed three times with PBS. 4% paraformaldehyde phosphate buffer (FUJIFILM Wako Pure Chemical Corporation) was added at 500 µL/well, and the cells were allowed to stand at room temperature for 15 minutes and then washed three times with PBS. Further, Hoechst 33342 (Thermo Fisher Scientific) diluted with PBS to 2 µg/mL was added at 500 µL/well, and the cells were allowed to stand at room temperature under shading for 10 minutes and then washed three times with PBS. The cover glass was removed from the 24-well plate, and the cells were enclosed on a slide glass using fluorescent mounting medium (Agilent Technologies) and allowed to stand at room temperature under shading overnight. For the observation, an inverted fluorescence microscope DMI6000B (Leica Microsystems) was used, and the observation was performed at the wavelength for detecting FITC and DAPI. The scale bar in the figures indicates 50 µm.

Another data set has as its system TfR-KI mice. The following applies: mouse, in vivo. On the procedure:
hTfRNo.894-vivotag750 conjugate administration liquid (No. 894 administration liquid) : 4.8 µL of dimethyl sulfoxide (DMSO, Sigma Aldrich) was added to 6 µL of a 5 mM solution of the hTfRNo.894-vivotag750 conjugate synthesized in Example 2, 66 µL of the 20% hydroxypropyl-β-cyclodextrin solution was further added, and the mixture was mixed well. To this, 48 µL of polyethylene glycol 400 was further added and mixed to prepare a No. 894-administration liquid. […] The offspring (chimeric mice) thus obtained were determined by hair color, and individuals in which the ES cells contributed to the development of the organism at a higher rate, that is, individuals having a higher proportion of white hairs relative to their total body hairs, were selected. […] White-colored F1 mice were selected, DNA was extracted from their tail tissues and analyzed, and the mice in which the mouse transferrin receptor gene on the chromosome had been heterologously replaced with the chimeric hTfR were selected as the TfR-KI mice. […] After this, tissues for measuring fluorescence intensity (brain, heart, lung, liver, spleen, kidney, quadriceps femoris muscle, thymus, thoracic vertebrae, and femur) were collected and stored in normal saline to prevent drying. […]

In data set [2] the target is transferrin receptor (hTfR) (Homo sapiens, UniProt P02786). Kind of data set: Intermolecular interaction evaluation test between transferrin receptor (hTfR) and peptide by surface plasmon resonance (SPR). Format: binding. The following applies: SPR, result in words. A digest of the protocol: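 hTfR captured on Ni-NTA chip then amine-coupled; peptides run single-cycle kinetics at 5–100 nM in 10 mM HEPES pH 8.0, 150 mM NaCl, 0.05% Tween 20, 0.1% BSA, 1.0% DMSO. KD from least-squares curve fitting of sensorgrams.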
transferrin receptor (hTfR), sequence (P02786 whole entry): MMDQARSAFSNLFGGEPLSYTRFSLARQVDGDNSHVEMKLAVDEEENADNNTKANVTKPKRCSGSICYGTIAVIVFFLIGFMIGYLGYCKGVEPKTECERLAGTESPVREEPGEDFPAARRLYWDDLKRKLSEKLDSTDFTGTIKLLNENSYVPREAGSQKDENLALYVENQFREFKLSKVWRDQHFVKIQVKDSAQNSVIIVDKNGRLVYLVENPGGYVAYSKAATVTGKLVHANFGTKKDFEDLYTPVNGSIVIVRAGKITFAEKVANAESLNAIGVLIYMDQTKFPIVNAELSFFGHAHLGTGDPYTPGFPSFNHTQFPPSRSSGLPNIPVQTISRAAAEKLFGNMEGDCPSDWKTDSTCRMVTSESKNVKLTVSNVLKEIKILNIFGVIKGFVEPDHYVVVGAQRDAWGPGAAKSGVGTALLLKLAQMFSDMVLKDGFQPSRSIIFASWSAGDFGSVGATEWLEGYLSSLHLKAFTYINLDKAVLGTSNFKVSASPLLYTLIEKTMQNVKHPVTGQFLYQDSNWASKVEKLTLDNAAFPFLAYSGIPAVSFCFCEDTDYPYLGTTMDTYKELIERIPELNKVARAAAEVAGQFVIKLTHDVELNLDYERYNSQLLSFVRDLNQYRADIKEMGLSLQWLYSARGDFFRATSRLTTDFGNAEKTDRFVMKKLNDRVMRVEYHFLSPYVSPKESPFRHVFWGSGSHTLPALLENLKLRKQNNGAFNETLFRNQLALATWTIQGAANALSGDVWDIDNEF
(In SPR one partner is held on a chip, and binding of the other changes the refractive index at the surface.)

*1 amine or outer side, *2 acyl side, *3 side chain or, on linkers, in order; H or OH if unused. Where a SMILES comes first, the peptide text is derived from it. Bridges are numbered along the chain shown (N, C = ends). Where no end group is shown, it is not given here. [ ]: non-standard residue; d: D form. The star is where a group is joined. ξ: configuration not given here. X6 = CC(C)[C@H](CC(=O)[C@H](Cc1ccccc1)N(C)[*:1])C(=O)[*:2]; X2 = O=C(O)c1cc(C(=O)*)ccc1-c1c2ccc(=O)cc-2oc2cc(O)ccc12; Tyr(Me) = COc1ccc(C[C@H](N[*:1])C(=O)[*:2])cc1; NMePhe(3-Cl) = CN[C@@H](Cc1cccc(Cl)c1)C(=O)O; NMeW = CN[C@@H](Cc1c[nH]c2ccccc12)C(=O)O; NMeY = CN[C@@H](Cc1ccc(O)cc1)C(=O)O; PEG4 = NCCOCCOCCOCCOCCC(=O)O; Aib = CC(C)(N)C(=O)O; ξC = NC(CS)C(=O)O

As to `CC[C@H](C)[C@@H]1NC(=O)[C@H](Cc2ccc(O)cc2)NC(=O)[C@H](Cc2ccc(O)cc2)NC(=O)[C@H](CC(N)=O)NC(=O)[C@H](Cc2c[nH]c3ccccc23)NC(=O)[C@H](C(C)C)NC(=O)[C@H](Cc2ccccc2)NC(=O)[C@H](C(C)C)NC(=O)[C@H](C)NC(=O)CSC[C@@H](C(=O)NCCOCCOCCOCCOCCOCCOCCOCCOCCOCCOCCOCCOCCC(=O)N[C@@H](CCCCNC(=O)c2ccc(-c3c4ccc(=O)cc-4oc4cc(O)ccc34)c(C(=O)O)c2)C(N)=O)NC(=O)[C@H](Cc2ccc(O)cc2)N(C)C(=O)[C@H](Cc2ccc(O)cc2)NC(=O)[C@H](CCCNC(=N)N)NC(=O)[C@H](CCCNC(=N)N)NC(=O)[C@H]([C@@H](C)CC)NC1=O`, the “localization in the brain tissue” value with hTfR-KI mice is “reached as far as neurons such as the Purkinje cells”.
Regarding `CC[C@H](C)[C@@H]1NC(=O)[C@H](Cc2ccc(O)cc2)NC(=O)[C@H](Cc2ccc(O)cc2)NC(=O)[C@H](CC(N)=O)NC(=O)[C@H](Cc2c[nH]c3ccccc23)NC(=O)[C@H](C(C)C)CC(=O)[C@H](Cc2ccccc2)N(C)C(=O)[C@H](C(C)C)NC(=O)[C@H](C)NC(=O)CSCC(C(=O)NCCOCCOCCOCCOCCC(=O)N[C@H](CCCCNC(=O)c2ccc(-c3c4ccc(=O)cc-4oc4cc(O)ccc34)c(C(=O)O)c2)C(N)=O)NC(=O)[C@H](Cc2ccc(O)cc2)N(C)C(=O)[C@H](Cc2ccc(O)cc2)NC(=O)[C@H](CCCNC(=N)N)NC(=O)[C@H](CCCNC(=N)N)NC(=O)[C@H]([C@@H](C)CC)NC1=O` (some centres unmarked) [Patent ID 446] ({CH2CO}-AV[X6]WNYYIIRRY[NMeY][ξC][PEG4][dK](X2)-NH2; thioether N-14), in data set [1], the “migration into the cells” value is reported as “into the cells was confirmed”.
In the case of `CC[C@H](C)[C@@H]1NC(=O)[C@H](Cc2ccc(O)cc2)NC(=O)[C@H](Cc2ccc(O)cc2)NC(=O)[C@H](CC(N)=O)NC(=O)[C@H](Cc2c[nH]c3ccccc23)NC(=O)[C@H](C(C)C)NC(=O)[C@H](Cc2ccccc2)NC(=O)[C@H](C(C)C)NC(=O)[C@H](C)NC(=O)CSC[C@@H](C(N)=O)NC(=O)[C@H](Cc2ccc(O)cc2)N(C)C(=O)[C@H](Cc2ccc(O)cc2)NC(=O)[C@H](CCCNC(=N)N)NC(=O)[C@H](CCCNC(=N)N)NC(=O)[C@H]([C@@H](C)CC)NC1=O` [hTfR No. 894], in the data set with TfR-KI mice, the “migration into the brain through the BBB” value is reported as “migrated into the brain through the BBB” and the migration to tissues entry is listed as “also migrated to each tissue, mainly muscle tissues”.
On to “Patent ID 447: 5-FAM labelled conjugate of hTfR_894_variant61_PEG4 (AVXVWNYXIIXXFYC; not fully specified; PEG4 linker, 5-FAM label; (3)..(3) Xaa is MeF3C; MOD_RES (5)..(5) …ON; (8)..(8) Xaa is F4OMe; (11)..(11) Xaa is Aib; (12)..(12) Xaa is dr; MOD_RES (14)..(14) …ON)”, for which, in data set [1], the “migration into the cells” value is given as “into the cells was confirmed”.
For “Patent ID 448: 5-FAM labelled conjugate of hTfR_894_variant03_PEG4 (AVXVWNYXIIRXFYC; not fully specified; PEG4 linker, 5-FAM label; (3)..(3) Xaa is MeF3C; MOD_RES (5)..(5) …ON; (8)..(8) Xaa is F4OMe; (12)..(12) Xaa is dr; MOD_RES (14)..(14) …ON)”, in data set [1], the “migration into the cells” value is listed as “into the cells was confirmed”.
Take “Patent ID 449: negative control, 5-FAM labelled conjugate of Flip894_variant61_PEG4, a peptide without binding ability to hTfR ({CH2CO}-A[NMeY]F[dR][Aib]IY[Tyr(Me)]YN[NMeW]V[NMePhe(3-Cl)]VC; thioether N-15; not fully specified (C-terminus); also: methylation at Y2 and W11, type not given here) [reference compound]”: the hTfR binding ability result in data set [2] is “no binding to hTfR was observed”. In addition, in data set [1], the “migration into the cells” value is “did not migrate into the cells”.

The values above are taken from patent publication US20230203098A1, “HUMAN TRANSFERRIN RECEPTOR BINDING PEPTIDE” (priority 2020, published 2023).
